# Experimental data from US9592186B2, “Topical compositions and methods for skin lightening” (Avon Products, Inc., priority 2014, dated 2017).
# Test system: Human epidermal melanocytes from dark-pigmented skin
# Assay: Melanin absorbance (pigmentation) in cultured human epidermal melanocytes after 8 days of incubation
# Format: cell-based
# Conditions: for effect on pigmentation (in words): summary of Table 1; for % Pigmentation (percent change of melanin absorbance relative to vehicle control): 8 days incubation, absorption at 405 nm
# Description: The Compound of Formula (II) was examined for its ability to reduce pigmentation in vitro in human melanocytes. Human epidermal melanocytes from dark-pigmented skin were seeded in 6-well dishes and grown using commercially available Medium 254, a sterile, liquid medium prepared with 200 μM calcium chloride for the culture of human epidermal melanocytes, supplemented with 1% Penicillin/Streptomycin and 1% Human Melanocyte Growth Supplement. Corresponding controls were maintained without histamine, Diphenylhydramine HCl and Compound II. Four replicates were tested for each combination. After 8 days of incubation, melanin was collected and processed by washing the wells with IX phosphate-buffered saline (PBS), followed by addition of 200 μL of 2M NaOH to three of the four replicates, which are then scraped, pooled and boiled at 80° C. for an hour. Melanin absorption was then measured at 405 nm using a spectrophotometer.
# A larger (positive or negative) percent change indicates a larger increase or reduction in melanin.
structure (smiles),measurement,setting,value
"NCCc1c[nH]cn1 [Histamine, reference compound]",effect on pigmentation (in words),5 μM,significant increase in pigmentation
CC(=O)c1ccc(OCC(=O)NCC(c2ccco2)N2CCCCC2)cc1 (stereo not shown) [Compound (II)],effect on pigmentation (in words),at both concentrations tested (0.001% and 0.0001%),effective to reduce pigmentation
same,% Pigmentation (percent change of melanin absorbance relative to vehicle control),concentration 0.0001%,−10.40%
same,% Pigmentation (percent change of melanin absorbance relative to vehicle control),concentration 0.001%,−40.83%
